Patent US9604974B2, “Compounds as modulator of JAK-STAT pathway, methods and applications thereof” (UNIVERSITY OF MYSORE, priority 2015, dated 2017)

Legend:
[1] = system: Bcl-2, Bcl-xL, Survivin, ICAM-1, Bid, Cyclin D1, Bak; experiment: Western blot of STAT3-regulated gene products; type: cell-based, human; details: HepG2, 10 μMol/L CIMO
Procedure: FIG. 3 depicts comparative study of cell viability between STAT3-siRNA transfected and Compound 1 (CIMO) treated HepG2 cells [A]. Correspondingly, Western Blot analysis is used to assess the levels of phospho-STAT3 and STAT3 in HepG2 cells with siRNA-mediated depletion STAT3 expression and on exposure to 4 μM CIMO. Whole cell extract is prepared and resolved on SDS-PAGE gel, electrotransferred onto nitrocellulose membrane, and probed for phospho-STAT3 and the same blot is stripped and reprobed with STAT3 antibody and Beta actin to verify equal protein loading. [B] showcases the modulation of STAT3 mediated transcription, α2-M promoter activity by Compound 1 (CIMO) in HepG2 cells. [C] depicts the inhibition of IL-6-induced phosphorylation of STAT3, JAK1 and JAK2 by Compound 1 (CIMO). Hep3B cells (5×10^5/mL) are treated with 10 μMol/L CIMO for the indicated times and then stimulated with IL-6 (10 ng/mL) for about 15 minutes. Whole-cell extracts are then prepared, resolved on SDS-PAGE gel, electrotransferred onto nitrocellulose membrane and probed with phospho-STAT3, phospho-JAK1 and phospho-JAK2 antibodies. The same blot is stripped and reprobed with STAT3, JAK1 and JAK2 antibody to verify equal protein loading. [D] and [E], showcases the suppression of STAT3 regulated gene products involved in cell proliferation and survival by Compound 1 (CIMO). […]
To detect STAT3-regulated proteins and PARP, cells (2×10^6/ml) are treated with CIMO for the indicated times as shown in respective FIGS. 3E, 3D and 4A. […] Whole-cell extract protein (30 μg) is resolved on SDS-PAGE, electrotransferred onto a nitrocellulose membrane, blotted with antibodies against survivin, Bcl-2, Bcl-xL, cyclin D1, Bak, Bid, ICAM-1, procaspase-3, and PARP and then detected by chemiluminescence (ECL; GE Healthcare, Little Chalfont, Buckinghamshire, UK).

[2] = system: HepG2 cells; experiment: CXCL12-induced wound migration assay; type: cell-based, human; details: 5 μM CIMO, presence and absence of CXCL12, versus controls
Procedure: STAT3 targeted gene products are known to be involved in cancer cell migration. FIG. 5A interprets the movement of cancer cells in the presence and absence of CIMO and C—X—C motif chemokine 12 (CXCL12) protein. CXCL12 is a chemokine which essentially stimulates the swift migration of cancer cells. An IBIDI culture insert (IBIDI GmbH) is developed with two reservoirs separated by a 500 μm thick wall created by a culture insert in a 35 mm petri dish. 70 μl of HepG2 cells (5×10^5 cells/ml) are added into the two reservoirs of the same insert and incubated at about 37° C. After 12 hours, the insert is gently removed by creating a gap of ˜500 μm. The cells are treated with about 5 μM CIMO for about 8 hours before being exposed to about 100 ng/mL CXCL12 for about 24 hours. Width of wound is measured at time zero and 24 hours of incubation with and without CIMO in the absence or presence of CXCL12. Graphs are plotted against the percentage of migration or distance the cells moved before and after treatment, normalized to control.

[3] = system: phospho-STAT3, Ki-67, cleaved caspase-3; experiment: Immunohistochemistry of tumor tissues; type: in vivo, athymic nu/nu female mice; details: treated vs. control group
Procedure: The effect of CIMO on constitutive phospho-STAT3 levels in HCC tumor tissues is further analyzed by immunohistochemical analysis. Solid tumors from control and drug-treated groups are fixed with 10% phosphate buffered formalin, processed, and embedded in paraffin. The sections are cut to 5 micron size and deparafinized in xylene, dehydrated in graded alcohol, and finally hydrated in water. Antigen retrieval is conducted by boiling the slide in 10 mM sodium citrate (pH 6.0) for about 30 minutes. Immunohistochemistry is conducted following the manufacturer's instructions (Dako LSAB Kit). Briefly, endogenous peroxidases are quenched with 3% hydrogen peroxide. Sections are incubated with primary antibodies for about 2 hours as follows: anti-pSTAT3, anti-Ki-67 and anti-caspase-3 (each at 1:100 dilutions). The slides are subsequently washed several times in TBS with 0.1% Tween-20 and are incubated with biotinylated linker for about 45 minutes, provided in the LSAB Kit according to the manufacturer's instructions. Immunoreactive species are detected using 3, 3′-diaminobenzidine tetrahydrochloride as a substrate. The sections are counterstained with Gill's hematoxylin and mounted under glass cover slips. Images are taken using an Olympus BX51 microscope (magnification, 40×). Quantitative analysis of immunohistochemistry images are done by visual scores between the control and treated images. In this expression quantitation technique, each image is divided into four parts and each part is individually quantitated for the biomarker expression. A cell scored as positive refers to the presence of brown staining (peroxidase) in any part of the studied tissue. A negative cell scored refers to no staining or weak staining.

## COc1ccc(C2CNC(c3cn(Cc4ccc(-c5ccccc5C#N)cc4)c4ccccc34)OC23CCCCC3)cc1 (stereo not shown) [Compound 1]
[1]
  expression of Bcl-2, Bcl-xL, Survivin, ICAM-1, Bid and Cyclin D1: Down-regulation
  time of maximum activity on Bak expression: 36 h
[1]; time-dependent
  expression of pro-apoptotic protein Bak: upregulation
[2]
  limitation of HepG2 cell migration: ~50%
[3]
  constitutive STAT3 activation in tumor tissues: significantly inhibits
  expression of Ki-67 in tumor tissues: downregulated
  expression of cleaved caspase-3 in tumor tissues: significantly increased
